Experimental findings from PubChem BioAssay (NCI) are described below.

Test systems include HCC-2998 colon; MOLT-4 leukemia; MDA-MB-231 breast; COLO 205 colon; U251 CNS; NCI-H460 lung; SK-OV-3 ovarian; EKVX NSCLC; PC-3 prostate; RXF 393 renal.
Experiment in all cases: NCI anticancer screen, dose series, 48 h

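Compound exposure: 48 hours, 5 concentrations, 96-well plates. TGI: total growth inhibition.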

As to `COC(=O)c1c(OC(C)=O)ccc2c1c1c(OC(C)=O)c3ccccc3c(OC(C)=O)c1n2Cc1ccccc1`, the TGI was 5.22 µM in the assay with HCC-2998 colon; more than 50 µM with MOLT-4 leukemia; 37.2 µM in the assay with MDA-MB-231 breast; 15.6 µM in the assay with COLO 205 colon; 17.3 µM in the assay on U251 CNS; more than 50 µM with NCI-H460 lung. Besides, the TGI was 19.5 µM in the assay on SK-OV-3 ovarian, 10.4 µM in the assay with EKVX NSCLC, 32 µM in the assay on PC-3 prostate and more than 50 µM in the assay on RXF 393 renal.

On to `COc1ccc2oc(=N)c(C(=O)Nc3ccccn3)cc2c1`, for which the TGI with HCC-2998 colon, with MOLT-4 leukemia, with MDA-MB-231 breast, with COLO 205 colon, in the assay with U251 CNS and in the assay on NCI-H460 lung was more than 100 µM throughout. Moreover, the TGI in the assay on SK-OV-3 ovarian, in the assay on EKVX NSCLC, with PC-3 prostate and in the assay with RXF 393 renal was more than 100 µM each time.

For `Cc1cc(NCCCCCCCNc2cc(C)nc3cc([N+](=O)[O-])ccc23)c2ccc([N+](=O)[O-])cc2n1`, the TGI in the assay with HCC-2998 colon was more than 55.6 µM; in the assay with MOLT-4 leukemia, 4.23 µM; in the assay with MDA-MB-231 breast, 6.58 µM; in the assay with COLO 205 colon, 27 µM; in the assay with U251 CNS, 27.4 µM; with NCI-H460 lung, 6.36 µM. The TGI in the assay on SK-OV-3 ovarian stood at 49.3 µM; with EKVX NSCLC, 35.9 µM; in the assay with PC-3 prostate, 31.1 µM; in the assay with RXF 393 renal, 22.9 µM.

As to `CC(C)(CC(O)C#N)/[N+]([O-])=[N+](\[O-])C(C)(C)CC(O)C#N` (stereo not given), the TGI was 34.2 µM in the assay with HCC-2998 colon; 34.5 µM with MOLT-4 leukemia; 62.8 µM in the assay on MDA-MB-231 breast; 31.7 µM in the assay on COLO 205 colon; more than 100 µM with U251 CNS; more than 100 µM in the assay with NCI-H460 lung. Also, the TGI in the assay with SK-OV-3 ovarian was more than 100 µM; in the assay with EKVX NSCLC, more than 100 µM; in the assay with PC-3 prostate, more than 100 µM; with RXF 393 renal, 35.4 µM.

`O=C1NC(=S)N(c2ccccc2)C1=O`: the TGI with HCC-2998 colon, in the assay on MOLT-4 leukemia, with MDA-MB-231 breast, in the assay on COLO 205 colon, with U251 CNS and with NCI-H460 lung was more than 100 µM each time. Moreover, the TGI in the assay on SK-OV-3 ovarian, in the assay with EKVX NSCLC, with PC-3 prostate and in the assay on RXF 393 renal was more than 100 µM throughout.

For `CC1OC(OC2C(OC(=O)[C@@H]3CC(C)(C)C[C@H]4C5=CC[C@@H]6[C@@]7(C)C[C@H](O)[C@H](OC8OC(CO)C(O)C(O)C8O)[C@@](C)(CO)[C@@H]7[C@H](O)C[C@@]6(C)[C@]5(C)CC[C@@]34C)OCC(O)C2O)C(O)C(O)C1O` (stereo not given in full), the TGI in the assay with HCC-2998 colon, with MOLT-4 leukemia, in the assay on MDA-MB-231 breast, with COLO 205 colon, in the assay with U251 CNS and in the assay on NCI-H460 lung was more than 7.5 µM in each case. Further, the TGI in the assay on SK-OV-3 ovarian, in the assay on EKVX NSCLC, in the assay with PC-3 prostate and in the assay on RXF 393 renal was more than 7.5 µM in each case.

In the case of `O=C1C[C@@H](c2ccccc2)O[C@@H](c2ccccc2)C1`, the TGI with HCC-2998 colon, in the assay on MOLT-4 leukemia, in the assay on MDA-MB-231 breast, in the assay on COLO 205 colon, in the assay on U251 CNS and in the assay with NCI-H460 lung was more than 100 µM each time. Further, the TGI in the assay on SK-OV-3 ovarian, in the assay on EKVX NSCLC, in the assay with PC-3 prostate and in the assay on RXF 393 renal was more than 100 µM in each case.

For the molecule `COc1cccc(NC(=O)C(C#N)=C(SC)SC)c1`, the TGI with HCC-2998 colon, in the assay with MOLT-4 leukemia, in the assay with MDA-MB-231 breast, in the assay on COLO 205 colon, in the assay on U251 CNS and with NCI-H460 lung was more than 100 µM each time. The TGI with SK-OV-3 ovarian, with EKVX NSCLC, in the assay on PC-3 prostate and in the assay on RXF 393 renal was more than 100 µM each time.

Turning to `CC(C)(C)OC(=O)NCCC1CN(C(=O)c2ccccc2)c2ccccc21` (stereo not given), the TGI was more than 100 µM in the assay on HCC-2998 colon; 74.4 µM with MOLT-4 leukemia; more than 100 µM in the assay with MDA-MB-231 breast; 40 µM with COLO 205 colon; more than 100 µM in the assay with U251 CNS; 56.3 µM in the assay with NCI-H460 lung. Also, the TGI in the assay with SK-OV-3 ovarian was more than 100 µM; in the assay on EKVX NSCLC, more than 100 µM; with PC-3 prostate, more than 100 µM; in the assay with RXF 393 renal, 99 µM.

Regarding `Cc1n[nH]c(=O)n1/N=C/c1ccc([N+](=O)[O-])o1`, the TGI in the assay on HCC-2998 colon is 40.7 µM; in the assay with MOLT-4 leukemia it was more than 100 µM; with MDA-MB-231 breast it was 74.9 µM; in the assay with COLO 205 colon, 20.8 µM; in the assay with U251 CNS it was more than 53.7 µM; in the assay on NCI-H460 lung it was 49.4 µM. The TGI with SK-OV-3 ovarian is more than 100 µM; in the assay on EKVX NSCLC, 34.3 µM; in the assay on PC-3 prostate it was more than 100 µM; in the assay with RXF 393 renal, 17.7 µM.

Consider `CCOC(=O)c1ccc(C(=O)C(C(C)=O)C(=O)OC(C)(C)C)[nH]1` (stereo not given), for which the TGI with HCC-2998 colon, with MOLT-4 leukemia, in the assay with MDA-MB-231 breast, in the assay on COLO 205 colon, with U251 CNS and in the assay with NCI-H460 lung was more than 100 µM each time. Also, the TGI in the assay on SK-OV-3 ovarian, in the assay on EKVX NSCLC, in the assay on PC-3 prostate and in the assay on RXF 393 renal was more than 100 µM each time.
